Values joined by “and” are separate entries in the source; they are usually repeats but may differ in a detail not shown here. Equal values may be shown once. Marks after values point to notes of the source that are not given here.
How the values were obtained:
Type in all cases: cell-based
[1] = system: ruminal fermentation (methane-producing microorganisms); experiment: Production of gas by in vitro fermentation of the diets (Example 4)
Protocol: The effect of different doses of the compounds object of study on the production of gas promoted by in vitro fermentation for 24 and 48 hours of the diets the composition of which is included in Table 1 is studied.

[2] = system: lactobacilli; experiment: In vitro fermentation of pig feces, lactobacilli count (Example 2); conditions: 200 mg/L, 24 hours
Protocol: (§1) The mean values affected by different indexes indicate significant differences (p<0.05). The vertical axis of the graph determines the log 10(cfu/g feces) and the horizontal axis determines the compound. The described assays are carried out using complete bacterial inocula obtained from feces of piglets in post-weaning stage. Two of the compounds (referenced as PTS and as PTSO) are assayed in a lower dose range (50-400 mg/L).

[3] = system: microbiota of the ruminal inoculum (ruminal fluid of goats); experiment: In vitro ruminal degradation of experimental diets (Example 3); conditions: for DDM (degradability of dry matter), mean / DOM (degradability of organic matter), mean: 48 hours; for Mean DDM / Mean DOM / DDM (degradation of dry matter) / DOM (degradation of organic matter): diet D1, 24 hours
Protocol: The Effect of Different Doses of the Compounds Object of Study on the Ruminal Degradation of Two Different Diets the Composition of which is in Table 1 is Studied The diets consist of alfalfa hay (standard maintenance diet for ruminant animals) or of a mixture of 50% alfalfa hay and a commercial concentrate (standard lactation diet for ruminant animals). In vitro incubation is performed using ruminal fluid of goats as inoculum.

[4] = system: bifidobacteria; experiment: In vitro fermentation of pig feces, bifidobacteria count (Example 2); conditions: 200 mg/L, 24 hours
Protocol: as §1

[5] = Alfalfa hay + concentrate, 10 ppm
[6] = Alfalfa hay + concentrate, 25 ppm
[7] = Alfalfa hay + concentrate, 50 ppm
[8] = Alfalfa hay + concentrate, 300 ppm
[9] = Alfalfa hay + concentrate, 750 ppm
[10] = Alfalfa hay + concentrate, 1000 ppm
[11] = Alfalfa hay + concentrate, 2000 ppm
[12] = diet D1, 50 to 750 ppm, 24 hours in vitro incubation
[13] = diet D1, 48 hours, 10 ppm, replicates
[14] = diet D1, 48 hours, 25 ppm, replicates
[15] = diet D1, 48 hours, concentration 50, replicates
[16] = diet D1, 48 hours, concentration 300, replicates
[17] = diet D1, 48 hours, concentration 750, replicates
[18] = diet D1, 48 hours, concentration 1000, replicates
[19] = diet D2, 48 hours, 10 ppm, replicates
[20] = diet D2, 48 hours, 25 ppm, replicates
[21] = diet D2, 48 hours, concentration 50, replicates
[22] = diet D2, 48 hours, concentration 300, replicates
[23] = diet D2, 48 hours, concentration 750, replicates
[24] = diet D2, 48 hours, concentration 1000, replicates
[25] = diet D2, 48 hours, concentration 2000, replicates

propyl propylthiosulfinate [PTS] was tested, and the “inhibitory effect on production of fermentation gas, dependence on dose” value [1] was “dose-dependent”, the “inhibitory effect on production of fermentation gas, dependence on time” value ([1]; 24 and 48 hours) was “time-dependent” and the “doses at which the inhibitory effect on production of fermentation gas is observed” value ([1]; diet D2) was 10 ppm. For the same substance, the “lactobacilli logarithmic reduction in the population” value [2] was “approximately 50%”, the “DDM (degradability of dry matter), mean” value [3, 5] was 63.9^ab and the “DOM (degradability of organic matter), mean” value [3, 5] was 63.9^ab. The “DDM (degradability of dry matter), mean” value [3, 6] was 59.4^b, the “DOM (degradability of organic matter), mean” value [3, 6] was 59.7^b and the “DDM (degradability of dry matter), mean” value [3, 7] was 59.8^b. For the same substance, the “DOM (degradability of organic matter), mean” value [3, 7] was 59.8^b, the “DDM (degradability of dry matter), mean” value [3, 8] was 48.3^c and the “DOM (degradability of organic matter), mean” value [3, 8] was 47.8^c. The “DDM (degradability of dry matter), mean” value [3, 9] was 43.5^c, the “DOM (degradability of organic matter), mean” value [3, 9] was 45.5^c and the “DDM (degradability of dry matter), mean” value [3, 10] was 45.6^c. For the same substance, the “DOM (degradability of organic matter), mean” value [3, 10] was 45.1^c, the “DDM (degradability of dry matter), mean” value [3, 11] was 45.3^c and the “DOM (degradability of organic matter), mean” value [3, 11] was 38.7^d. The “DDM (degradability of dry matter), mean” value ([3]; Alfalfa hay, 10 ppm) was 54.2^a, the “DOM (degradability of organic matter), mean” value ([3]; Alfalfa hay, 10 ppm) was 54.5^a and the “DDM (degradability of dry matter), mean” value ([3]; Alfalfa hay, 25 ppm) was 52.3^a. The “DOM (degradability of organic matter), mean” value ([3]; Alfalfa hay, 25 ppm) was 42.9^bc, the “DDM (degradability of dry matter), mean” value ([3]; Alfalfa hay, 50 ppm) was 46.6^b and the “DOM (degradability of organic matter), mean” value ([3]; Alfalfa hay, 50 ppm) was 46.7^b. The “DDM (degradability of dry matter), mean” value ([3]; Alfalfa hay, 300 ppm) was 40.6^c, the “DOM (degradability of organic matter), mean” value ([3]; Alfalfa hay, 300 ppm) was 41.0^c and the “DDM (degradability of dry matter), mean” value ([3]; Alfalfa hay, 750 ppm) was 39.6^c. The “DOM (degradability of organic matter), mean” value ([3]; Alfalfa hay, 750 ppm) was 39.2^c, the “DDM (degradability of dry matter), mean” value ([3]; Alfalfa hay, 1000 ppm) was 39.1^c and the “DOM (degradability of organic matter), mean” value ([3]; Alfalfa hay, 1000 ppm) was 38.8^c. For the same substance, the “DDM (degradability of dry matter), mean” value ([3]; Alfalfa hay, 2000 ppm) was 39.6^c, the “DOM (degradability of organic matter), mean” value ([3]; Alfalfa hay, 2000 ppm) was 40.0^c and the DDM ([3]; Table 4: diet D1, 48 hours, concentration 2000, replicates) was 40.2% and 38.9%. The “effect on degradation of dry matter” value [3, 12] was “reduction of the degradation of dry matter”, the “effect on degradation of organic matter” value [3, 12] was “do not affect” and the “Mean DDM” value ([3]; 50 ppm) was 37.1%. The “Mean DOM” value ([3]; 50 ppm) was 38.5%, the “DDM (degradation of dry matter)” value ([3]; 50 ppm, replicates) was 37.7% (2×) and 37.9% and 34.1% and 35.6% and 39.3% and the “DOM (degradation of organic matter)” value ([3]; 50 ppm, replicates) was 38.0% and 38.9%. For the same substance, the “Mean DDM” value ([3]; 300 ppm) was 37.4%, the “DDM (degradation of dry matter)” value ([3]; 300 ppm, replicates) was 38.5% and 40.4% and 37.6% and 36.0% and 35.7% and 36.2% and the “Mean DDM” value ([3]; 750 ppm) was 39.5%. The “Mean DOM” value ([3]; 750 ppm) was 38.1%, the “DDM (degradation of dry matter)” value ([3]; 750 ppm, replicates) was 40.8% and 37.7% and 43.2% and 39.5% and 37.9% and 38.0% and the “DOM (degradation of organic matter)” value ([3]; 750 ppm, replicates) was 39.4% and 36.8%. For the same substance, the DDM [3, 13] was 54.5% and 53.9%, the DOM [3, 13] was 54.8% and 54.2% and the DDM [3, 14] was 52.0% and 52.5%. For the same substance, the DOM [3, 14] was 43.0% and 42.9%, the DDM [3, 15] was 46.2% and 46.9% and the DOM [3, 15] was 47.5% and 45.9%. The DDM [3, 16] was 41.8% and 39.4%, the DOM [3, 16] was 42.5% and 39.5% and the DDM [3, 17] was 39.6% and 39.7%. The DOM [3, 17] was 38.6% and 39.7%, the DDM [3, 18] was 39.1% and the DOM [3, 18] was 38.6% and 38.9%. The DOM ([3]; diet D1, 48 hours, concentration 2000, replicates) was 40.3% and 39.7%, the DDM [3, 19] was 64.0% and 63.9% and the DOM [3, 19] was 63.8% and 64.0%. For the same substance, the DDM [3, 20] was 57.4% and 61.4%, the DOM [3, 20] was 57.6% and 61.8% and the DDM [3, 21] was 60.9% and 58.7%. For the same substance, the DOM [3, 21] was 60.9% and 58.8%, the DDM [3, 22] was 49.3% and 47.2% and the DOM [3, 22] was 48.6% and 47.1%. For the same substance, the DDM [3, 23] was 44.8% and 42.2%, the DOM [3, 23] was 46.5% and 44.6% and the DDM [3, 24] was 46.1% and 45.1%. The DOM [3, 24] was 45.6% and 44.7%, the DDM [3, 25] was 45.7% and 44.9% and the DOM [3, 25] was 38.9% and 38.5%. The “bifidobacteria logarithmic reduction in the population” value [4] was “approximately 50%”.

From patent US20100035984A1, “Use of an antibacterial compound which is derived from alliaceae, as a natural additive in animal feed” (DMC Research Center, S.L., priority 2006, published 2010)
